Tests used:
TcPINK1 [1] = molecular target: T1, TcPINK1 (Tribolium castaneum, UniProt D6WMX4); assay: In vitro ubiquitin kinase assay with tetraubiquitin (Ub4), pUb immunoblot; assay type: biochemical; conditions: 100 µM compound; for Inhibition of Ub4 phosphorylation (kinase activity of TcPINK1): 100 µM ATP, 5 min, 30 °C
T1 construct: GST (N, cleaved yes); made in house; host or cells: E. coli
T1 sequence (D6WMX4 121-570 limits assumed): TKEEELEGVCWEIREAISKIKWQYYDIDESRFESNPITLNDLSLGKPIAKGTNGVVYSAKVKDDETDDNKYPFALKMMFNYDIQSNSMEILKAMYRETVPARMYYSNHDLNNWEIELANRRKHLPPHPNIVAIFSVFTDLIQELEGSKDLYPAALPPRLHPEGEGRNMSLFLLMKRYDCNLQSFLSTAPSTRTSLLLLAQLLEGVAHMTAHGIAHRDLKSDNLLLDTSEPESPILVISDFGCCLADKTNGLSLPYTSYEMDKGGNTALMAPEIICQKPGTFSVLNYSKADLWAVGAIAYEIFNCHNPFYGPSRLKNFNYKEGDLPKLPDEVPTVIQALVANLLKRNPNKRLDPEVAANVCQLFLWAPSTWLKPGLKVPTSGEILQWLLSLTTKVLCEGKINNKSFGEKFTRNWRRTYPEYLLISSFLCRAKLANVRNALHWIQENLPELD
Experimental: Inhibitors were purchased from different sources via Cedarlane Laboratories (catalog # in parenthesis). […] Olaparib was sent by mistake by Adooq Bioscience under cat #P505-15 and identified by LC–MS/MS (MS^1: m/z 435.183; MS^2: m/z 367.157, 281.072). MTK458 was donated by Mitokinin. The racemic PRT-core was custom synthesised by ChemSpace (CSCS02808122161). Kinase activity assays were performed by mixing 5 nM of purified TcPINK1 with 100 µM ATP, 100 µM small molecules from 10 mM stock in DMSO, 200 µM MgCl2 in kinase buffer (final 1% DMSO). The reactions were left in a 30 °C incubator for 5 min for TcPINK1. The reactions were stopped with the addition of Laemmli buffer (2% SDS, 0.1% bromophenol blue (SigmaAldrich), 10% glycerol, 100 mM DTT) final concentration 1X. The entire reaction was loaded onto a 12.5% Tris-Tricine gel (1 M Tris–HCl pH 8.45, 12.5% acrylamide, 0.1% SDS, 0.1% APS, 0.04% TEMED). Protein from a 12.5% polyacrylamide gel were transferred onto an immuno-blot polyvinylidene fluoride (PVDF) membrane (Bio-rad). The membranes were stained with 1% Ponceau and imaged using the ImageQuant LAS 500. The membrane was washed with distilled water and then blocked in 5% BSA diluted in tris buffered saline with 0.1% Tween (TBS-T) for 1 h. The membrane was briefly rinsed and left to incubate with primary antibody anti-pS65-Ub (E2J6T; rabbit mAb, CST, 62802) at a 1:10,000 dilution in TBS-T for 2 h. The membrane was further rinsed three times for 10 min with TBS-T before incubating it with a 1:2000 dilution of secondary antibody, anti-rabbit horseradish peroxidase (HRP)-conjugated antibodies (CST, 7074), in TBS-T. The membrane was rinsed three times for 10 min in TBS followed by the addition of 1 mL ECL solution (BioRad) to the membrane and visualized on the ImageQuant LAS 500. Densitometry was performed using the Fiji software.

[2] = molecular target: T2, TcPINK1 121-570 (TcPINK1-4arom) (Tribolium castaneum, UniProt D6WMX4, F401A/W131A/W142A/Y225A); assay: Isothermal titration calorimetry; assay type: binding; conditions: AMP-PNP (syringe) into TcPINK1 (cell), 20 °C, one-site model
T2 construct: GST (N, cleaved yes); made in house; host or cells: E. coli BL21 DE3
Experimental: The isothermal titration calorimetry (ITC) assay was performed using the Microcal ITC 200-1 instrument. […] Experiment involved 29 injections of AMP-PNP at 1.5 mM into a sample cell containing 350 μL of 100 µM TcPINK1-4arom at 20 °C. Data was fitted to a one-site model and background was subtracted using the Origin v7 software.

TcPINK1 [3] = molecular target: T3, TcPINK1 (Tribolium castaneum, UniProt D6WMX4); assay: Kinase Glo luminescence assay (ATP hydrolysis) IC50 determination; assay type: biochemical; conditions: 1 µM unphosphorylated TcPINK1, 10 µM ATP, 5 min, 30 °C
T3 construct: TcPINK1 (121–570) ampicillin-resistant plasmids were co-expressed in BL21 DE3 E. coli with lambda phosphatase; GST (N, cleaved yes); made in house; host or cells: E. coli BL21 DE3
Experimental: The Kinase Glo Max (cat #V6071) kit assay was used to measure the ATP consumed in the kinase assays. Unphosphorylated 1 µM TcPINK1 was incubated with 10 µM ATP for 5 min at 30 °C in kinase buffer ([…]). […] The kinase buffer consists of 50 mM Tris–HCl pH 7.5, 300 mM NaCl, 1 mM DTT. 100 µL of kinase at 1 µM was added to 100 µL kinase buffer with inhibitor and left in a 30 °C incubator. After the 5-min mark, 200 µL kinase glo was added to stop the reaction. 100 µL of the sample was then pipetted into 3 wells of an opaque white 96-well plate. The luminescence was measured using the Orion II Microplate Luminometer and obtained using the Simplicity 4.2 program. […] The ATP concentration remaining in the reaction was calculated from the linear equation of the ATP standard curve. This number was then divided by the amount of ATP initially present and multiplied by 100 to obtain the percent inhibition. The values were normalized according to the baseline (no inhibitor). The points plotted on a non-linear regression graph in GraphPad Prism 7. The IC50 value and standard deviation were determined in GraphPad.

human PINK1 (HsPINK1) = molecular target: T4, human PINK1 (HsPINK1) (Homo sapiens, UniProt Q9BXM7); assay: In organello Ub4 kinase assay with mitochondria isolated from CCCP-treated HeLa cells; assay type: biochemical; conditions: 100 µM compound, 0.1 mM ATP, 15 min, 30 °C
T4 construct: host or cells: HeLa (mitochondria isolated after CCCP)
Experimental: Wild type (WT) HeLa cells (ATCC #CCL-2) were cultured in DMEM medium supplemented with 10% fetal bovine serum (FBS) at 37 °C and 5% CO2 in a humidified atmosphere. Cells were then treated with 20 µM CCCP for 3 h to induce the accumulation of PINK1. Cells were then washed twice in ice-cold mitochondrial isolation buffer (MIB: 20 mM HEPES, 70 mM sucrose, 220 mM mannitol, pH 7.4, 1 mM EDTA, Complete protease inhibitors), resuspended in MIB and lysed using nitrogen cavitation for 5 min at 500 psi. Cell debris were removed by centrifugation at 500 g for 5 min, and mitochondria were pelleted by centrifugation at 20,000g for 20 min. 7.5 µg of mitochondria was incubated with 3.75 µg Ub4, 5 mM MgCl2, 0.1 mM ATP and 100 µM of each inhibitor for 15 min at 30 °C. The reaction was quenched with Laemlli buffer and loaded on a gel for immunoblotting as described above. The following antibodies were used: anti-pS65-Ub (E2J6T; rabbit mAb, CST, 62802), anti-PINK1 (D8G3; rabbit IgG mAb; CST, 6946), anti-cytochrome C (136F3, recombinant rabbit mAb, CST, 4280), and HRP-conjugated secondary anti-rabbit (CST, 7074).

FGR = conditions: cited from earlier work
TcPINK1 [4] = molecular target: T5, TcPINK1 (Tribolium castaneum, UniProt D6WMX4); assay: Autophosphorylation (transphosphorylation) assay by intact LC-MS; assay type: biochemical; conditions: 100 µM compound, 5 µM TcPINK1, 1 mM ATP, 30 °C
T5 sequence (D6WMX4 128-570 limits assumed): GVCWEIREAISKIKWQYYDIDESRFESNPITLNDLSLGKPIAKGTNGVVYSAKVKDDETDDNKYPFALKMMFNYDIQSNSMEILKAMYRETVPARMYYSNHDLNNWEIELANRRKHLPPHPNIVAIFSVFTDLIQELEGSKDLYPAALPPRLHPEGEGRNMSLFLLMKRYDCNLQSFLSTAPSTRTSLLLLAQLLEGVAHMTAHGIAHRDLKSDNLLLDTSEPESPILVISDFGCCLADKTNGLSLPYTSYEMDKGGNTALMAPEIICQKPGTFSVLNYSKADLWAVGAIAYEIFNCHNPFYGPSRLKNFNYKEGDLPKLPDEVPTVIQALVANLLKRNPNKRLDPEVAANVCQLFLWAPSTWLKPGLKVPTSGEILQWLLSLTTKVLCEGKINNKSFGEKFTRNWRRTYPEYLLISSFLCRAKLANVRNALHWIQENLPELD
Experimental: Intact protein mass spectrometry was used to monitor transphosphorylation of TcPINK1-D337N by ^15N-TcPINK1-WT, as described previously. ^15N-TcPINK1 at 5 μM was combined with 5 μM TcPINK1-D337N, 100 μM compound of interest, 1 mM ATP, 2 mM MgSO4 in 300 mM NaCl, 50 mM Tris–HCl pH 8, 2 mM DTT with 2% DMSO at 30 °C for transphosphorylation reactions with timepoints of 0 s, 30 s, 60 s, and 120 s. Timepoint reactions were stopped by addition of 0.05% TFA and 2% acetonitrile (final concentrations). Reactions in 20 μL were injected on a Dionex C4 Acclaim 1.0/15 mm column followed by a 10 min 4–50% gradient of ACN in 0.1% formic acid with a flow rate of 40 μL/min. The eluate was analyzed on a Bruker Impact II Q-TOF mass spectrometer equipped with an Apollo II ion funnel ESI source. The multiply charged ions were deconvoluted at 10,000 resolution using the maximum entropy method. The signal intensity of the nonphosphorylated and phosphorylated TcPINK1-D337N peaks were estimated using the DataAnalysis software integration tool and used to calculate the fraction phosphorylated.

MLK1 = conditions: cited from earlier work
[5] = molecular target: T6, endogenous PINK1 in dopaminergic (DA) neurons (Homo sapiens, UniProt Q9BXM7); assay: Assay with dopaminergic neurons (CCCP, immunoblot); assay type: cell-based; conditions: 48 h compound then 20 µM CCCP 2 h
T6 construct: host or cells: ReN VM cells differentiated to dopamine neurons

GST-TcPINK1 = molecular target: T7, GST-TcPINK1 (Tribolium castaneum, UniProt D6WMX4); assay: In vitro ubiquitin kinase assay with monoubiquitin, Phos-tag gel; assay type: biochemical; conditions: 5 µM GST-TcPINK1, 30 µM ubiquitin, 1 mM ATP, 37 °C
T7 construct: made in house; host or cells: E. coli
Experimental: (a) Thermal shift assay screen of kinase inhibitors against Tribolium castaneum PINK1 (TcPINK1) with melting temperature increase of 1.5 °C and above. Error bars indicate standard error of ΔTm estimation from melting curves (n = 1). (b) In vitro ubiquitin kinase assays with TcPINK1 and tetraubiquitin (Ub4). Reactions were analyzed by immunoblotting against phospho-ubiquitin (pUb). […] The ponceau staining of the above gel is shown as loading control. (c) In vitro ubiquitin kinase assays with 5 μM GST-TcPINK1 and 30 μM ubiquitin, as well as 1 mM ATP at 37 °C (n = 1). Reactions were analyzed using a phos-tag gel and stained by Coomassie blue. (d) Chemical structures of identified PINK1 inhibitors.

[6] = molecular target: T8, human PINK1 (PINK1-3HA) in HeLa S3 cells (Homo sapiens, UniProt Q9BXM7); assay: HeLa S3 cells IC50 determination (pUb immunoblot after CCCP); assay type: cell-based; conditions: HeLa S3 PINK1-3HA, CCCP 4 h
T8 construct: expressed in transfected cells; host or cells: HeLa S3

[7] = molecular target: FMS-like tyrosine kinase 3 (FLTK3); conditions: read-out: Inhibition of FLTK3; cited from earlier work

T6 sequence (Q9BXM7 78-581): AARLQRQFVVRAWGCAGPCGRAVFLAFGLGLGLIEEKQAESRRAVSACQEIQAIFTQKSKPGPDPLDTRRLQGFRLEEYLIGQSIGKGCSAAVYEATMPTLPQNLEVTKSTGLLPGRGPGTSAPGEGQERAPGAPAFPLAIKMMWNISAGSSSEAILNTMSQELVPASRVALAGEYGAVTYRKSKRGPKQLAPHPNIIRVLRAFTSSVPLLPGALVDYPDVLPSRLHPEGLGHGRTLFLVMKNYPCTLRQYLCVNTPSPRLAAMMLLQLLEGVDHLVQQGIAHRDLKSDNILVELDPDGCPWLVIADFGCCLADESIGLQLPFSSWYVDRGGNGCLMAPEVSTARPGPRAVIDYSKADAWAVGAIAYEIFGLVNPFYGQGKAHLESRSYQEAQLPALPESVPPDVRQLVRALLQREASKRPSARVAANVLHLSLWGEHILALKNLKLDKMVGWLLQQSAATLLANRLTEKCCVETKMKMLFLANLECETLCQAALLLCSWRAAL
T4 sequence (Q9BXM7 78-581): as above
T7 sequence (D6WMX4 with tags, fused parts or gaps limits assumed): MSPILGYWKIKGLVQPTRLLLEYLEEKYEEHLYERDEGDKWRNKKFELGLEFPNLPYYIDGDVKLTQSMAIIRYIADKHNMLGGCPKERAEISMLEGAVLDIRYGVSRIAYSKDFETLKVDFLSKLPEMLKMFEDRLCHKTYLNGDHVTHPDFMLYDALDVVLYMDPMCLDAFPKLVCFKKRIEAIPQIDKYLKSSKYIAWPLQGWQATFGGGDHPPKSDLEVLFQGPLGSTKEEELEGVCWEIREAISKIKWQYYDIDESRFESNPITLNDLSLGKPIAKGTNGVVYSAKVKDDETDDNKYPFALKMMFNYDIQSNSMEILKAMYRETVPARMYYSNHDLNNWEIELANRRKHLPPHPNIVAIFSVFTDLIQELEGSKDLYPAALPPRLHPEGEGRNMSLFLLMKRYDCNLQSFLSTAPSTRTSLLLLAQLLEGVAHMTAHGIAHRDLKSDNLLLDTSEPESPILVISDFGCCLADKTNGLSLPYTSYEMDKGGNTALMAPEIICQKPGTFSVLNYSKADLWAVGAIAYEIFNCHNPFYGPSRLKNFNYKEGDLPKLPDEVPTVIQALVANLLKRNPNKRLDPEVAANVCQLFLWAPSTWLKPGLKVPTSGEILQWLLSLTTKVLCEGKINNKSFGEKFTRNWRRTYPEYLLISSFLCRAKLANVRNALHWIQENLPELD
T2 sequence (D6WMX4 121-570 W131A/W142A/Y225A/F401A): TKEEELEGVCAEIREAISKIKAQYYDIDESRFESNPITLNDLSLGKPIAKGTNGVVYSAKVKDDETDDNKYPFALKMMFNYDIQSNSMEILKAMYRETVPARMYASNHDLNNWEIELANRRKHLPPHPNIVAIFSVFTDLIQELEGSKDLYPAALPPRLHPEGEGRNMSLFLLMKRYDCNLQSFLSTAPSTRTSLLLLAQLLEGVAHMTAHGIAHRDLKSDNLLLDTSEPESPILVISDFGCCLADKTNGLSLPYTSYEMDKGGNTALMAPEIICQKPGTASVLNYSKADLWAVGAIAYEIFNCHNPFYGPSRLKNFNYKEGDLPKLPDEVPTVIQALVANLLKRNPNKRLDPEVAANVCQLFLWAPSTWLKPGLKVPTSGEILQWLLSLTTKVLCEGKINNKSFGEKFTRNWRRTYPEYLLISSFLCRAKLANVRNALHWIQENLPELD
T8 sequence (Q9BXM7 78-581): as the sequence (Q9BXM7 78-581) above

Structure (SMILES) | Inhibition of Ub4 phosphorylation (kinase activity of TcPINK1) (TcPINK1 [1]) | IC50 (TcPINK1 [3]) [µM] | Inhibition of human PINK1 Ub4 phosphorylation in organello (human PINK1 (HsPINK1)) | further results
NC(=O)c1cnc(N[C@@H]2CCCC[C@@H]2N)nc1Nc1ccccc1 (racemic) [PRT-core] | inhibit the kinase activity of TcPINK1 |  |  | 
Nc1ncnc2c1ncn2[C@@H]1O[C@H](COP(=O)(O)OP(=O)(O)NP(=O)(O)O)[C@@H](O)[C@H]1O [AMP-PNP] |  |  |  | Kd [2]: 96 µM
Cc1nc(N)sc1-c1ccnc(Nc2ccc(N3CCOCC3)cc2)n1 [CYC116] |  | 65.4 ± 1.1 |  | 
Nc1nc(Nc2ccc(S(N)(=O)=O)cc2)nn1C(=O)c1c(F)cccc1F [JNJ-7706621] |  | 27.6 ± 1.1 |  | 
FC(F)(F)c1cc2c(N[C@@H]3CCCc4ccccc43)ncnc2[nH]1 [MTK458] |  |  | does not significantly affect Ub4 phosphorylation | 
Cc1cccc(Nc2nc(N[C@@H]3CCCC[C@@H]3N)ncc2C(N)=O)c1 [PRT060318] | inhibit the kinase activity of TcPINK1 | 2.5 | most potent inhibitors of human PINK1 kinase activity | 
NC(=O)c1cnc(N[C@@H]2CCCC[C@@H]2N)nc1Nc1cccc(-n2nccn2)c1 [PRT062607] | inhibits Ub4 phosphorylation most strongly |  | most potent inhibitors of human PINK1 kinase activity | IC50 (FGR): 0.081 µM; TcPINK1 autophosphorylation (TcPINK1 [4]): inhibits TcPINK1 autophosphorylation; IC50 (MLK1): […]; Mfn2 ubiquitination [5]: inhibition of Mfn2 ubiquitination; Potential-dependent cleavage of Opa1 to its short isoform [5]: not affected; pUb signal [5]: reduction of the pUb signal in a dose-dependent manner; Inhibition of monoubiquitin phosphorylation (GST-TcPINK1): inhibits TcPINK1; PINK1 levels (HA blot) [6]: not substantially affected
Cn1cc(-c2nc(N[C@@H]3CCCC[C@@H]3N)c(F)c3c2C(=O)NC3)cn1 [TAK-659] | inhibit the kinase activity of TcPINK1 | 6.4 ± 1 |  | IC50 [7]: 0.005 µM
CNCc1ccc(-c2cc(-c3nc(-c4ccc(S(=O)(=O)C(C)C)cc4)cnc3N)on2)cc1 [VE822] |  |  | does not significantly impact HsPINK1 | TcPINK1 activity compared to control (TcPINK1 [1]; Ub4 substrate): 8%
